# The supplement of paper PMC10307832
# Legend:
# Test in all cases: relative viability (nuclei count vs DMSO), 5 days (fraction); higher = more cells survive
# Bicalutamide + Lapatinib = compound: CC(O)(CS(=O)(=O)c1ccc(F)cc1)C(=O)Nc1ccc(C#N)c(C(F)(F)F)c1 [Bicalutamide] + CS(=O)(=O)CCNCc1ccc(-c2ccc3ncnc(Nc4ccc(OCc5cccc(F)c5)c(Cl)c4)c3c2)o1 [Lapatinib] (partner 2 µM)
# Summary of the method: (§1)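 Lung cancer cell lines were pin-tool dosed in 1536-well plates on the day after seeding, with either a lone drug or a fixed anchor-drug dose plus five library-drug doses (not always all listed) in √10 steps. Nuclei were counted on 4× images after 5 days. Relative viability is the ratio of treated-well to vehicle-well nuclei counts, with each value a median of duplicate plates.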
# Bicalutamide + Alpelisib = compound: CC(O)(CS(=O)(=O)c1ccc(F)cc1)C(=O)Nc1ccc(C#N)c(C(F)(F)F)c1 [Bicalutamide] + Cc1nc(NC(=O)N2CCC[C@H]2C(N)=O)sc1-c1ccnc(C(C)(C)C(F)(F)F)c1 [Alpelisib] (partner 2 µM)
# Summary of the method: as §1
# [1] = compound: C(C(=O)C(=O)O)Br [Bromopyruvate] + Nc1ncn([C@H]2C[C@H](O)[C@@H](CO)O2)c(=O)n1 [Decitabine] (partner 2 µM)
# Summary of the method: as §1
# [2] = compound: C(C(=O)C(=O)O)Br [Bromopyruvate] + O=C(CCCCCCC(=O)Nc1ccccc1)NO [Vorinostat] (partner 1 µM)
# Summary of the method: as §1
Cell Line,relative viability (Bicalutamide + Lapatinib; first compound 0.08 µM),relative viability (Bicalutamide + Lapatinib; first compound 0.253 µM),relative viability (Bicalutamide + Lapatinib; first compound 0.8 µM),relative viability (Bicalutamide + Lapatinib; first compound 2.53 µM),relative viability (Bicalutamide + Alpelisib; first compound 0.08 µM),relative viability (Bicalutamide + Alpelisib; first compound 0.253 µM),relative viability (Bicalutamide + Alpelisib; first compound 0.8 µM),relative viability (Bicalutamide + Alpelisib; first compound 2.53 µM),relative viability ([1]; first compound 1 µM),relative viability ([1]; first compound 3.162 µM),relative viability ([1]; first compound 10 µM),relative viability ([1]; first compound 31.62 µM),relative viability ([1]; first compound 100 µM),relative viability ([2]; first compound 1 µM),relative viability ([2]; first compound 3.162 µM),relative viability ([2]; first compound 10 µM),relative viability ([2]; first compound 31.62 µM),relative viability ([2]; first compound 100 µM)
NCI-H358,0.471,0.475,0.524,0.51,0.808,0.904,0.936,0.992,0.2,0.21,0.223,0.247,0.238,0.77,0.607,0.626,0.541,0.505
NCI-H460,1.08,0.881,,0.972,0.52,0.429,0.685,0.506,0.484,0.459,0.679,0.46,0.468,0.74,0.71,0.599,0.524,0.565
NCI-H520,0.817,0.674,1.01,0.779,1.08,0.945,1.1,0.808,0.576,0.486,0.473,0.531,0.414,0.543,0.745,0.706,0.731,0.469
NCI-H596,1.02,1.17,1.16,1.18,0.521,0.493,0.588,0.568,1.64,1.11,0.974,1.05,1.03,0.572,0.633,0.628,0.584,0.757
NCI-H647,1.07,0.954,1.75,0.748,1.32,1.33,1.47,0.858,0.439,0.362,0.405,0.393,0.474,0.559,0.724,0.399,0.51,0.334
NCI-H650,1.04,1.07,1.07,0.644,1.34,1.04,1.35,0.814,0.295,0.322,0.316,0.281,0.26,0.438,0.487,0.411,0.441,0.392
NCI-H661,0.482,0.493,0.447,0.493,0.594,0.591,0.833,0.829,0.505,0.571,0.654,0.546,0.523,0.767,0.798,0.779,0.712,0.712
NCI-H727,0.945,0.763,1.09,0.77,0.63,0.546,0.471,0.483,0.815,1.09,0.966,0.915,0.871,1.28,1.26,1.24,0.886,1.23
NCI-H838,1.09,0.881,1.38,0.734,0.984,0.909,0.984,0.945,0.485,0.461,0.408,0.405,0.457,0.7,0.684,0.652,0.631,0.607
NCI-H1355,1,0.902,0.974,1.03,0.816,0.793,0.924,0.853,0.382,0.328,0.316,0.343,0.336,0.668,0.641,0.646,0.607,0.606
NCI-H1395,0.858,0.956,1.29,0.869,0.94,1.04,1.34,0.928,0.754,0.717,0.751,0.707,0.707,1.03,0.791,0.649,0.683,0.681
NCI-H1437,0.826,0.736,1.01,0.711,1.02,0.988,1.24,0.954,0.672,0.588,0.524,0.583,0.577,0.918,0.672,0.74,0.694,0.529
NCI-H1651,0.731,0.744,1.07,0.788,0.956,0.947,1.17,0.944,0.604,0.587,0.709,0.548,0.588,0.612,0.573,0.578,0.466,0.345
NCI-H1666,0.733,0.652,0.815,0.662,1.01,0.889,1.13,0.942,0.679,0.738,0.835,0.66,0.705,1.01,0.978,1.08,0.931,0.858
NCI-H1734,1.18,0.904,1.25,0.971,0.676,0.59,0.884,0.683,0.505,0.507,0.629,0.502,0.457,0.762,0.86,0.858,0.736,0.724
NCI-H1755,1.03,1.06,1.05,0.928,0.914,0.903,0.992,0.853,0.793,0.684,0.721,0.672,0.659,0.862,0.819,0.682,0.768,0.651
NCI-H1793,0.637,0.645,1.04,0.832,0.763,0.636,0.827,0.687,0.535,0.472,0.697,0.393,0.516,0.792,0.914,0.794,0.727,0.634
NCI-H1915,0.933,0.933,1.06,0.882,1.07,1.12,1.14,1.01,0.258,0.273,0.268,0.249,0.271,0.5,0.495,0.529,0.462,0.423

Cell Line,relative viability (Bicalutamide + Lapatinib; first compound 0.08 µM),relative viability (Bicalutamide + Lapatinib; first compound 0.253 µM),relative viability (Bicalutamide + Lapatinib; first compound 0.8 µM),relative viability (Bicalutamide + Lapatinib; first compound 2.53 µM),relative viability (Bicalutamide + Alpelisib; first compound 0.08 µM),relative viability (Bicalutamide + Alpelisib; first compound 0.253 µM),relative viability (Bicalutamide + Alpelisib; first compound 0.8 µM),relative viability (Bicalutamide + Alpelisib; first compound 2.53 µM),relative viability ([1]; first compound 1 µM),relative viability ([1]; first compound 3.162 µM),relative viability ([1]; first compound 10 µM),relative viability ([1]; first compound 31.62 µM),relative viability ([1]; first compound 100 µM),relative viability ([2]; first compound 1 µM),relative viability ([2]; first compound 3.162 µM),relative viability ([2]; first compound 10 µM),relative viability ([2]; first compound 31.62 µM),relative viability ([2]; first compound 100 µM)
NCI-H1944,0.857,0.607,0.899,0.904,0.852,0.737,0.869,0.851,0.419,0.423,0.503,0.39,0.44,0.592,0.647,0.582,0.568,0.654
NCI-H1975,0.851,0.854,1.12,0.785,0.642,0.615,0.795,0.526,0.396,0.402,0.341,0.394,0.413,0.741,0.761,0.687,0.675,0.582
NCI-H1993,,0.897,0.732,0.854,,0.693,0.708,0.717,0.612,0.609,0.628,0.655,0.464,0.19,0.862,0.83,0.72,0.842
NCI-H2009,1.23,0.997,1.2,0.758,1.25,1.14,1.13,1.18,0.352,0.42,0.336,0.349,0.261,0.72,0.682,0.622,0.546,0.266
NCI-H2023,0.727,0.866,1.21,0.648,0.593,0.59,0.555,0.608,0.221,0.205,0.29,0.229,0.194,0.547,0.687,0.619,0.464,0.615
NCI-H2085,0.776,0.739,0.839,0.704,0.895,1.04,0.958,0.879,0.626,0.557,0.529,0.593,0.526,0.769,0.81,0.798,0.764,0.862
NCI-H2087,1.24,1.01,1.15,1,1.22,0.843,1.16,1.13,0.307,0.318,0.248,0.305,0.259,0.814,0.551,0.751,0.528,0.375
NCI-H2126,0.686,0.697,0.74,0.753,0.742,0.707,0.76,0.74,0.625,0.603,0.543,0.582,0.564,0.82,0.832,0.886,0.829,0.639
NCI-H2170,0.286,0.271,0.268,0.24,0.834,0.767,0.853,0.842,0.471,0.464,0.424,0.44,0.438,0.911,0.853,0.79,0.802,0.705
NCI-H2347,1.11,0.935,0.989,0.784,1.09,1.09,1.12,0.971,0.605,0.643,0.541,0.616,0.635,0.645,0.541,0.542,0.495,0.473
NCI-H2405,1.2,1.01,1.16,0.852,0.789,0.775,0.827,0.775,0.696,0.732,0.854,,0.665,1.35,1.01,0.814,,0.742
NCI-H3122,0.983,0.962,1.04,1.04,0.707,0.92,0.821,0.767,0.454,0.426,0.365,0.425,0.377,1.05,0.991,1.11,0.829,0.718
PC-3 [JPC-3],0.476,0.421,0.456,0.476,1.08,1.01,1.09,1.07,0.866,,0.91,,0.738,1.1,,0.536,,0.764
PC-14,0.301,0.295,0.452,0.297,0.916,0.952,0.969,0.869,0.226,0.229,0.204,0.262,0.201,0.755,0.706,0.587,0.516,0.482
RERF-LC-KJ,0.904,0.862,1.07,0.705,0.756,0.81,0.948,0.777,0.738,0.745,0.791,0.794,0.72,0.707,0.655,0.673,0.626,0.516
SK-LU-1,0.95,0.828,0.997,0.854,1.12,0.962,1.41,0.848,0.704,0.606,0.56,0.597,0.623,0.744,0.81,0.728,0.632,0.713
SK-MES-1,0.48,0.456,0.472,0.46,0.903,0.718,1.02,0.858,0.362,0.494,0.353,0.427,0.337,1.08,1.2,1.04,0.94,0.965
SW 1573,1.03,0.909,1.3,1.11,0.678,0.639,0.831,0.689,0.498,0.574,0.534,0.304,0.0598,0.799,0.861,0.924,0.478,0.0513
